Measured values: BindingDB's records for doi:10.1016/j.bmcl.2005.08.100 (the State University of New Jersey, 2022)

What was measured:
[1] = target: T1, Replicase polyprotein 1ab (Severe acute respiratory syndrome coronavirus 2, UniProt P0DTD1); test: Inhibition of 6xHis-tagged SARS-CoV-2 papain-like protease expressed in Escherichia coli BL21 (DE3) using ISG15-FITC as substrate incubated for 30 mins by fluorescence polarization assay
[2] = target: T1, Replicase polyprotein 1ab; test: Binding affinity to biotin-tagged SARS-CoV-2 papain-like protease expressed in Escherichia coli BL21 (DE3) assessed as dissociation constant incubated for 3 mins by BLI assay
[3] = target: T1, Replicase polyprotein 1ab; test: Inhibition of N-terminal 3xFlag-His6-tagged SARS-CoV-2 papain-like protease nsp3 (1564 to 1878 residues) expressed in baculovirus infected Sf9 insect cells using Pro3 as substrate by fluorescence based assay
[4] = target: T1, Replicase polyprotein 1ab; test: Inhibition of TAP-tagged SARS-CoV-2 papain-like protease nsp123
[5] = target: T1, Replicase polyprotein 1ab; test: Inhibition of SARS-CoV-2 papain-like protease-mediated de-ISGylation
[6] = target: T1, Replicase polyprotein 1ab; test: Inhibition of TAP-tagged SARS-CoV-2 papain-like protease nsp23
[7] = target: T1, Replicase polyprotein 1ab; test: Inhibition of SARS-CoV-2 papain-like protease expressed in Escherichia coli BL21 (DE3) using Z-LRGG-AMC/Z-RLRGG-AMC as substrate preincubated for 30 mins by enzymatic assay
[8] = target: T1, Replicase polyprotein 1ab; test: Inhibition of C-terminal His-tagged SARS-CoV-2 BetaCoV/Wuhan/WIV04/2019 papain-like protease (1564 to 1876 residues) expressed in Escherichia coli BL21 (DE3) using Dabcyl-FTLRGG/APTKV as substrate preincubated for 1 hr followed by substrate addition measured after 3 hrs by FRET assay
[9] = target: T1, Replicase polyprotein 1ab; test: Inhibition of recombinant SARS-CoV-2 papain-like protease using Z-Arg-Leu-Arg-Gly-Gly-AMC as substrate by enzymatic assay
[10] = target: T1, Replicase polyprotein 1ab; test: Inhibition of recombinant SARS-CoV-2 main protease using ATLQAIAS as substrate preincubated for 15 mins by enzymatic assay
[11] = target: T1, Replicase polyprotein 1ab; test: Inhibition of SARS-CoV-2 papain-like protease using ISG15-Rh as substrate
[12] = target: T1, Replicase polyprotein 1ab; test: Inhibition of SARS-CoV-2 papain-like protease using RLRGG-AMC as substrate
[13] = target: T1, Replicase polyprotein 1ab; test: Inhibition of SARS-CoV-2 papain-like protease assessed as viral protease-mediated deubiquitination using ubiquitinated substrate incubated for 16 to 18 hrs by fluorescence based assay
[14] = target: T1, Replicase polyprotein 1ab; test: Inhibition of SARS-CoV-2 papain-like protease using fluorescent substrate preincubated for 1 hr by fluorescence based assay
[15] = target: T1, Replicase polyprotein 1ab; test: Binding affinity to CM5 chip immobilized full-length wild-type SARS-CoV-2 papain-like protease (1564 to 1878 residues) expressed in Escherichia coli BL21 (DE3) assessed as dissociation constant incubated for 90 secs by SPR analysis
[16] = target: T1, Replicase polyprotein 1ab; test: Inhibition of SARS-CoV-2 papain-like protease

Work on `Oc1c(Cl)cc(Cl)c2cccnc12` [AS-229] yielded an IC50 [1] of 7.24 µM and a Kd [2] of 4.6 µM.
Compound `O=C1c2ccccc2-c2nc3nnnn3nc21` has an IC50 [3] of 260 nM.
For `Nc1nc2nc[nH]c2c(=S)[nH]1`, the IC50 [4] was 500 nM, the IC50 [5] was 100 nM and the IC50 [6] was 1000 nM.
`C[C@@H](NC(=O)c1ccccc1CCC(=O)NNC(=O)/C(C#N)=C/C1CC1)c1cccc2ccccc12` was tested, and the IC50 [7] was over 200 µM.
Work on `C[C@H](c1ccccc1Cl)N(C)Cc1cc(O)ccc1Cl` yielded an IC50 [8] of 6.67 µM.
With `Cc1ccc(NC2=CC(=O)c3sc(C)nc3C2=O)cc1` [5-(N-(4-Methylphenyl)amino)-2-methyl-4,7-dioxobenzothiazole] the IC50 [3] was 390 nM.
For `CN(Cc1cn(C2C3=C(OC2(C)C)c2ccccc2C(=O)C3=O)nn1)C1=C(Br)C(=O)c2ccccc2C1=O` (stereo unspecified), the IC50 [9] was 3100 nM and the IC50 [10] was 66 µM.
With `O=Cc1ccc(O)cc1` [4-hydroxybenzaldehyde] the IC50 [11] was 3.99 µM.
In the case of `Nc1ccc2cc3ccc(N)cc3nc2c1` [acridine-3,6-diamine], the IC50 [12] is reported as 1660 nM.
Compound `O=C1c2c(O)cccc2[C@H]([C@@H]2O[C@H](CO)[C@@H](O)[C@H](O)[C@H]2O)c2cc(CO)cc(O)c21` [CHEBI:2991] has an IC50 [13] of 15.7 µM and an IC50 [14] of 13.2 µM.
Work on `C[C@H](c1cccc2ccccc12)N1CCC(C(=O)NCc2cc(F)cc(NC(=O)N3CCN(C)CC3)c2)CC1` yielded a Kd [15] of 2600 nM.
With `O=C1c2c(O)cccc2[C@@H]([C@@H]2O[C@H](CO)[C@@H](O)[C@H](O)[C@H]2O)c2cc(CO)cc(O)c21` the IC50 [13] was 17.5 µM and the IC50 [14] was 16.1 µM.
Work on `O=C1c2ccccc2C(=O)c2oc(-c3ccccc3)nc21` yielded an IC50 [16] of 560 nM.
With `CN(Cc1cn(C2C3=C(OC2(C)C)c2ccccc2C(=O)C3=O)nn1)C1=CC(=O)c2ccccc2C1=O` (stereo unspecified) the IC50 [9] was 2200 nM.
Work on `OCCc1ccc(O)cc1` [4-(2-Hydroxy-ethyl)-phenol] yielded an IC50 [11] of 6.68 µM.
